Source: patent US11980633B2, “Method for treating cancer using a combination of DNA-damaging agents and DNA-PK inhibitors” (Vertex Pharmaceuticals Incorporated, priority 2016, dated 2024)

Legend:
Type in all cases: cell-based
[1] = system: primary human tumors (esophageal, gastric); assay: TCA: Compound B-1 with 5-FU, primary tumors
Experimental: (§1) In both studies, cell viability was assessed after 6 days in culture. Statistical analysis of the combination matrix was performed to assess whether synergy, additivity, or antagonism of the combination treatments were observed.
(§2) Materials: Primary patient samples (See Tables 16 and 17, below) were excised from mice when they reached 500 mg to 1000 mg in size and processed immediately, or after overnight shipment. Tumors were serially passaged by subcutaneous implantation of 50 mg to 150 mg fragments into the flanks of immunocompromised (nude) mice. Tumors were used within the first 5 or 7 passages.
(§3) Tumor Chemosensitivity Assay (TCA): Primary tumor samples were grown and serially passaged in immunocompromised mice. Tumors were mechanically dissociated into small fragments (1 mm to 2 mm) with scalpels in phosphate buffered saline (PBS or RPMI) and centrifuged at 200×g for 5 minutes at room temperature in 50 mL centrifuge tubes. Samples were resuspended in 10 mL of cell dissociation reagent and enzymatically digested with mechanical agitation for 1 to 3 hours at 37° C., 5% CO2 to a single cell suspension. Ten mL of complete RPMI-1640 media was added to the cell mixture and pipetted up and down 4 to 5 times. The mixture was then passed through a 70 μm or 100 μm mesh strainer to remove undigested tumor. The filtrate was then centrifuged 200×g for 5 minutes at room temperature and resuspended in 20 mL complete RPMI-1640. This cell suspension was slowly layered onto 20 mL of room temperature Histopaque and centrifuged at 400×g for 15 minutes at room temperature without a brake. The interface was transferred to a new 50 mL centrifuge tube and 15 mL of complete RPMI-1640 was added. This suspension was centrifuged at 200×g at room temperature, and the resulting pellet was resuspended in 10 mL of complete PC-1 media, except for pancreatic tumors in which case Pancreatic Medium was used. Cells were diluted in Trypan blue, and viable cells that excluded the dye were counted. Only the larger, tumor cells were included in the cell count. Cells were diluted in complete PC-1 or Pancreatic media, as appropriate for the cells, and were plated at 15,000 to 20,000 cells per well in 100-135 μL in ultra-low attachment U-bottom plates.
(§4) Compound Addition: For these studies, a 10 mM stock of the DNA-PK inhibitor (Compound B-1 or Compound B-2) was made in DMSO and used to add to cells from most tumors with HP D300 Digital Dispenser (Tecan US, Morrisville, NC, USA), or diluted into the appropriate media (PC-1 or pancreatic media) as a 5-10× stock and added to cells (OVX001 and ENX001, 005). PC-1, pancreatic media, and chemotherapeutics were also added so that final well volume was 150 μL. Doxorubicin was made as DMSO stock of 1 or 10 mM and added to cells for most tumors with HP D300 Digital Dispenser, or diluted into PC-1 as 5-10× stock and added to cells (OVX001 and ENX001, 005). Cisplatin (cis-diammine platinum(II), dichloride) was prepared fresh to 10 mM in warm (60° C.) distilled water and diluted in PC-1 as a 5-10× stock. […] Different starting concentrations, dose ranges, and number of doses were used for each experiment based on the response data available at the time.
(§5) For bleomycin experiments, combinations with Compound B-1 at all concentrations were run in triplicate. A 6×3 matrix was designed on one plate, consisting of a 2-point concentration range of 0.73 μM and 2.2 μM Compound B-1 plus no treatment control, in 3 columns each of 6 wells. Bleomycin (plus ‘no treatment’ control) was added to 9 wells in rows of this plate. Similar 6×3 matrices were set up for additional agents with different starting concentrations for compound dilutions. For cisplatin experiments the starting concentration was 30 μM which was diluted 1:3. […] For doxorubicin hydrochloride experiments the starting concentration was 5 μM doxorubicin which was diluted 1:3. For gemcitabine experiments the starting concentration was 5 μM gemcitabine which was diluted 1:3. […]

[2] = system: primary human tumors (esophageal, gastric); assay: TCA: Compound B-1 with paclitaxel, primary tumors
Experimental: as §1, §2, §3, §4, §5

[3] = system: primary human tumors (NSCLC, SCLC, pancreatic, HCC, gastric, esophageal); assay: TCA assays overall: all combination treatments with Compound B-1
Experimental: as §1, §2
as §3, with “Cells were diluted in complete PC-1 or Pancreatic media, as appropriate for the cells, and were plated at 15,000 to 20,000 cells per well in 100-135 μL in ultra-low attachment U-bottom plates.” left out

In the case of `CNC(=O)c1ccnc2c([C@H](C)CNc3cc(-c4cnc(C)nc4)ncn3)cccc12` [Compound B-1], the “tumors that showed synergy or additivity” value ([1]; 5 tumors) is reported as 100%, the “Average Bliss score” value ([1]; tumor ESX005, Esophageal) is reported as −1 and the Synergy/Additivity/Antagonism ([1]; tumor ESX005, Esophageal) is reported as “Additive (Values between 5 and −5 are considered additive)”. For the same compound, the “Average Bliss score” value ([1]; tumor ESX008, Esophageal) was −2, the Synergy/Additivity/Antagonism ([1]; tumor ESX008, Esophageal) was “Additive (Values between 5 and −5 are considered additive)” and the “Average Bliss score” value ([1]; tumor GAX001, Gastric) was 6. For the same compound, the Synergy/Additivity/Antagonism ([1]; tumor GAX001, Gastric) was “Synergistic (greater than 5 are considered synergistic)”, the “Average Bliss score” value ([1]; tumor GAX007, Gastric) was 0 and the Synergy/Additivity/Antagonism ([1]; tumor GAX007, Gastric) was “Additive (Values between 5 and −5 are considered additive)”. The “Average Bliss score” value ([1]; tumor GAX027, Gastric) was 4, the Synergy/Additivity/Antagonism ([1]; tumor GAX027, Gastric) was “Additive (Values between 5 and −5 are considered additive)” and the “tumors that showed additivity” value ([2]; four of 5 tumors) was 80%. The “tumors that showed antagonism” value ([2]; one of 5 tumors) was 20%, the “Average Bliss score” value ([2]; tumor ESX005, Esophageal) was −3 and the Synergy/Additivity/Antagonism ([2]; tumor ESX005, Esophageal) was “Additive (Values between 5 and −5 are considered additive)”. For the same compound, the “Average Bliss score” value ([2]; tumor ESX008, Esophageal) was −5, the Synergy/Additivity/Antagonism ([2]; tumor ESX008, Esophageal) was “Antagonistic (less than −5 are considered antagonistic)” and the “Average Bliss score” value ([2]; tumor GAX001, Gastric) was −1. The Synergy/Additivity/Antagonism ([2]; tumor GAX001, Gastric) was “Additive (Values between 5 and −5 are considered additive)”, the “Average Bliss score” value ([2]; tumor GAX007, Gastric) was −4 and the Synergy/Additivity/Antagonism ([2]; tumor GAX007, Gastric) was “Additive (Values between 5 and −5 are considered additive)”. The “Average Bliss score” value ([2]; tumor GAX027, Gastric) was 1, the Synergy/Additivity/Antagonism ([2]; tumor GAX027, Gastric) was “Additive (Values between 5 and −5 are considered additive)” and the “tumors that showed antagonism” value ([3]; all TCA combinations with Compound B-1 (4/63)) was 6%. The “combination treatments that showed additive effects” value ([3]; all TCA combinations with Compound B-1 (29/63)) was 46% and the “combination treatments that demonstrated synergy or strong synergy” value ([3]; all TCA combinations with Compound B-1 (29/68 as printed)) was 46%.
